Source: patent EP2792683A1, “Compounds potentiating the activity of antifungal drugs” (Fundacion MEDINA. Centro de Excelencia en Investigacion de …, priority 2013, dated 2014)

Test system: C. albicans
Assay: Cell viability by membrane integrity, propidium iodide (PI) flow cytometry
Assay type: cell-based
Experimental: • Figure 1. Checkerboard assay showing the potentiation of the antifungal caspofungin by the compound MDN-0018. In this assay, dose response curves of the compound MDN-0018 (8 to 0.015 µg/mL) are performed from left to right and dose response curves of caspofungin (0.24 to 0.018 µg/mL) are performed from top to bottom. Other known antifungal compounds (echinocandins, azoles and polyenes) were tested, obtaining a similar checkboard. […] Determination of the potentiation of caspofungin activity by the compound MDN-0018 against A. fumigatus. Study of the optimum concentration of the compounds MDN-0018 and caspofungin where maximum enhancement of caspofungin is reached is shown in Figure 2.1. In addition, the graphic representation of curves, in duplicate, of the caspofungin potentiated by the compound MDN-0018 is shown in Figure 2.1. Each curve represents a curve of caspofungin from 0.24 to 0.018 µg/mL ([…]) with set concentrations of the MDN-0018 compound from 8 to 0.015 µg/mL (8.86 to 0.017 µM). • Figure 3. Flow cytometry experiments to determine cellular viability by changes in membrane permeability using propidium iodide (PI) as probe. […]
Cell viability was determined by changes in membrane permeability, live cells with intact membranes are distinguished by their ability to exclude dyes that easily penetrate dead or damaged cells. […]

CC[C@H](C)C[C@H](C)CCCCCCCCC(=O)N[C@H]1C[C@@H](O)[C@@H](NCCN)NC(=O)[C@@H]2[C@@H](O)CCN2C(=O)[C@H]([C@H](O)CCN)NC(=O)[C@H]([C@H](O)[C@@H](O)c2ccc(O)cc2)NC(=O)[C@@H]2C[C@@H](O)CN2C(=O)[C@H]([C@@H](C)O)NC1=O [caspofungin]
cellular viability by changes in membrane permeability (PI), flow cytometry profile (1 µg/mL of caspofungin): damaged population
cellular viability by changes in membrane permeability (PI), flow cytometry profile (sublethal dose of caspofungin (0.015 µg/mL)): same profile as the non treated cells
